Reference: paper PMC9908594, “Biochemical characterization and identification of ferulenol and embelin as potent inhibitors of malate:quinone oxidoreductase from Campylobacter jejuni” (Frontiers in Molecular Biosciences, 2023)
“And” between values parts separate entries of the source, which are not always exact repeats. Identical values can stand only once.

Legend:
TgMQO [1] = test system: TgMQO; set-up: method as in Acharjee et al., 2021; details: ref Acharjee et al., 2021; cited from earlier work
CjMQO [2] = biological target: T1, CjMQO (Campylobacter jejuni, UniProt P56954); assay: Steady-state kinetics of purified CjMQO for substrates; assay type: biochemical; details: for K m for ubiquinone: pH 7.0, 37°C
Experimental: The steady-state kinetic parameters of CjMQO were determined for malate and ubiquinone (UQ) with different side chain length (UQ0, UQ1, UQ2, UQ4, and dUQ; Supplementary Figure S3). The reaction mixture contained UQ, 1% (v/v) ethanol, 50 mM MOPS, 1 mM KCN and 0.2 μg/mL of purified CjMQO at the optimal pH (pH 7.0) and physiological temperature (37°C). The reduction of quinones was measured through the decrease in the absorbance at 278 nm ( ε278= 15 mM^-1 cm^-1). The Michaelis constant (K m) and maximum velocity (V max) of CjMQO for UQs were determined by varying the concentrations of UQs from 0.1 to 100 μM with the malate concentration fixed at 10 mM.
Next, K m and V max of CjMQO for malate were determined by varying the concentrations from 0.5 to 50 mM at fixed concentrations of different UQs (100 μM for UQ0 and UQ1 and 10 μM for dUQ and UQ2). The apparent steady-state kinetic parameters were calculated by Michaelis-Menten equation using GraphPad Prism software (ver. 9.3.1, GraphPad Software, Inc., San Diego, California, United States). Following the protocol previously described for TgMQO ([Acharjee et al., 2021]), the reaction mechanism of CjMQO was analysed using malate and UQ1 as substrates. Briefly, CjMQO activity was measured at different UQ1 concentrations (2, 5, 10, 20, and 50 μM) with malate concentrations fixed at 0.5, 2, and 5 mM; the data were then analysed using a double reciprocal plot (Lineweaver-Burk plot) produced by utilizing intercept and slope calculated from steady-state kinetics parameters obtained by fitting the data to Michalis-Menten equation with GraphPad Prism software. The type of reaction mechanism was determined based on the characteristics of the lines plotted in the double reciprocal plot.

human dermal fibroblast = test system: human dermal fibroblast; set-up: method as in Hartuti et al., 2018; details: ref Hartuti et al., 2018, read-out: Cytotoxicity IC50; cited from earlier work
[3] = biological target: PfMQO (P. falciparum MQO) (Plasmodium falciparum, UniProt C6KT09); set-up: method as in Hartuti et al., 2018; details: previously reported; ref Hartuti et al., 2018; cited from earlier work
TgMQO [4] = test system: TgMQO; set-up: method as in Acharjee et al., 2021; details: previously reported; ref Acharjee et al., 2021; cited from earlier work
C. jejuni ATCC29428 = assay: C. jejuni growth inhibition, resazurin assay; assay type: cell-based, Campylobacter jejuni; details: Mueller Hinton broth, 24 h, microaerophilic, 37°C, resazurin
CjMQO [5] = biological target: T1, CjMQO; assay: Inhibition mechanism of CjMQO (mixed-model fit, Lineweaver-Burk); assay type: biochemical
Experimental: The inhibition mechanism of the two compounds were investigated as described in a previous study ([Acharjee et al., 2021]). First, the inhibition mechanism versus UQ1 was assayed separately in a reaction mixture containing 50 mM MOPS pH 7.0, 1 mM KCN and 0.2 μg/mL of purified CjMQO containing a range of different ferulenol (0, 0.01, 0.02, and 0.04 μM) and embelin (0, 0.05, 0.1, and 0.15 μM) concentrations. Enzyme activity was measured at varying concentrations of UQ1 (5, 10, 20, 50, and 100 μM) and the reaction was initiated with 10 mM malate. Second, the inhibition mechanism versus malate was determined at 50 μM of UQ1, and the reaction was initiated with varying concentrations of malate (5, 10, 15, and 20 mM) and monitored at 278 nm, in singlets. The steady-state kinetics parameters, in the presence of inhibitors, were used to produce the Lineweaver-Burk plot. Next, the data were fitted to a mixed-type inhibition equation by a nonlinear-regression method using GraphPad Prism software. The intercept and slope from the primary plot (Lineweaver-Burk plot), were replotted as a function of the inhibitor. Finally, additional analysis was performed based on Dixon and Cornish Bowden plots in addition to the plot of Lineweaver-Burk to differentiate the types of inhibition mechanisms.

[6] = biological target: CjMQO (malate:quinone oxidoreductase from C. jejuni) (Campylobacter jejuni, UniProt P56954); assay: biochemical; assay type: biochemical; details: 50 mM MOPS pH 7.0, 100 μM UQ1, 1 mM KCN, 0.2 μg/mL CjMQO, 10 mM malate; read-out: IC50 on purified CjMQO
[7] = test system: DLD-1 (colon cancer-derived); set-up: method as in Hartuti et al., 2018; details: ref Hartuti et al., 2018, read-out: Cytotoxicity IC50; cited from earlier work
[8] = test system: Panc-1 (pancreatic cancer-derived); set-up: method as in Hartuti et al., 2018; details: ref Hartuti et al., 2018, read-out: Cytotoxicity IC50; cited from earlier work

T1 sequence (P56954 whole entry): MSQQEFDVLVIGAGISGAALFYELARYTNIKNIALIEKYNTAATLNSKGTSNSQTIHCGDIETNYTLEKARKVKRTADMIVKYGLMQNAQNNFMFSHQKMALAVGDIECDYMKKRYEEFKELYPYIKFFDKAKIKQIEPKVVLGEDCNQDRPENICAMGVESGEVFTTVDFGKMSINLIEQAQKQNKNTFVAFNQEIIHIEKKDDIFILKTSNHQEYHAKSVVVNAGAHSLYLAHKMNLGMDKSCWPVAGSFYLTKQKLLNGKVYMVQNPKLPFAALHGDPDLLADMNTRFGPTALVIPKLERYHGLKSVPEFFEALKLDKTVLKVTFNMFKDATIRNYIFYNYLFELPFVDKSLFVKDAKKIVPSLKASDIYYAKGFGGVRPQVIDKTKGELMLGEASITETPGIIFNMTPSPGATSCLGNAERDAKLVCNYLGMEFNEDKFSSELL
Chain of CjMQO (malate:quinone oxidoreductase from C. jejuni) (P56954 whole entry): as above
Chain of PfMQO (P. falciparum MQO) (C6KT09 entry or part of it): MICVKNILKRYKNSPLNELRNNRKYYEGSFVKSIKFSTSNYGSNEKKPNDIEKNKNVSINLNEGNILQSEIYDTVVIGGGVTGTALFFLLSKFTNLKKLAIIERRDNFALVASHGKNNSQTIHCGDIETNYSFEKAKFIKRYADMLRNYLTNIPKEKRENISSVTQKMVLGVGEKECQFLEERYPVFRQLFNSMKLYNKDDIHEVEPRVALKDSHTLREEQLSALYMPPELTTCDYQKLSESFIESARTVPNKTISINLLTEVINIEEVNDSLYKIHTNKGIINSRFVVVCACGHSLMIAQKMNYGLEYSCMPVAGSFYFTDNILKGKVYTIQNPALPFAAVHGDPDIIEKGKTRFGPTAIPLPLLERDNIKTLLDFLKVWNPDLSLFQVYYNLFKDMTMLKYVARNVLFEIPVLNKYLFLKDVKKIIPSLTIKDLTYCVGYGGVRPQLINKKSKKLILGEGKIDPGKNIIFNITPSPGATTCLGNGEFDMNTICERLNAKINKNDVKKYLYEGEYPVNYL

COC1=C(OC)C(=O)C(CC=C(C)C)=C(C)C1=O [UQ1]
K m of TgMQO for ubiquinone (TgMQO [1]): 116 µM | V max of TgMQO for ubiquinone (TgMQO [1]): 44 µmol/min/mg | K m for ubiquinone (CjMQO [2]; UQ varied, malate fixed 10 mM): 46 µM and 46.0 ± 3.1 µM

COC1=C(OC)C(=O)C(C/C=C(\C)CC/C=C(\C)CC/C=C(\C)CCC=C(C)C)=C(C)C1=O [UQ4]
V max (CjMQO [2]; UQ varied, malate fixed 10 mM): 10 µmol/min/mg and 10.0 ± 1.0 µmol/min/mg | k cat (CjMQO [2]; UQ varied, malate fixed 10 mM): 43.9 ± 11.4 s⁻¹ | k cat /K m (CjMQO [2]; UQ varied, malate fixed 10 mM): 5.3e+07 M⁻¹ s⁻¹ | K m for ubiquinone (CjMQO [2]; UQ varied, malate fixed 10 mM): 0.8 µM and 0.80 ± 0.2 µM | Concentration above which substrate inhibition was observed (CjMQO [2]; possibly due to low solubility in the assay condition): > 2 µM

CCCCCCCCCCC1=C(C)C(=O)C(OC)=C(OC)C1=O [dUQ, decylubiquinone]
K m of TgMQO for ubiquinone (TgMQO [1]): 17 µM | V max of TgMQO for ubiquinone (TgMQO [1]): 12 µmol/min/mg | K m for ubiquinone (CjMQO [2]; UQ varied, malate fixed 10 mM): 8.5 µM and 8.50 ± 2.0 µM

CC(C)=CCC/C(C)=C/CC/C(C)=C/Cc1c(O)c2ccccc2oc1=O [Ferulenol, ferulenol]
IC50 (human dermal fibroblast): 65.8 µM | IC50 [3]: 0.057 µM | IC50 (TgMQO [4]): 0.822 µM | IC50 (C. jejuni ATCC29428): 0.6 µM | K m (apparent, mixed-model fit) (CjMQO [5]; UQ1 varied, malate fixed): 42 ± 5 µM | V max (apparent, mixed-model fit) (CjMQO [5]; UQ1 varied, malate fixed): 133 ± 7 µmol/min/mg | α versus UQ1 (quinone) (CjMQO [5]; UQ1 varied, malate fixed): 1.04 | K i versus UQ1 (CjMQO [5]; UQ1 varied, malate fixed (10 mM)): 0.02 µM | Inhibition type versus UQ1 (quinone) (CjMQO [5]; UQ1 varied, malate fixed, NC: noncompetitive): noncompetitive | Inhibition type versus malate (CjMQO [5]; malate varied, UQ1 fixed): Mixed | K m (apparent, mixed-model fit) (CjMQO [5]; malate varied, UQ1 fixed): 1,845 ± 201 μM | V max (apparent, mixed-model fit) (CjMQO [5]; malate varied, UQ1 fixed): 70 ± 2 µmol/min/mg | α versus malate (CjMQO [5]; malate varied, UQ1 fixed): 2.66 | K i versus malate (CjMQO [5]; malate varied, UQ1 fixed (50 μM)): 0.01 µM | Inhibition type versus malate (CjMQO [5]; malate varied, UQ1 fixed, listed as ferulenol): mixed-type | IC50 [6]: 0.018 µM | IC50 [7]: 50.1 µM | IC50 [8]: 50.2 µM
